Reference: patent publication US7507860B2 (Pfizer Inc., priority 2004, dated 2009)
pIC50: −log10 of the molar value.

Target: T1, androgen receptor (Homo sapiens, UniProt P10275)
T1 sequence (P10275 1-920 Q868H): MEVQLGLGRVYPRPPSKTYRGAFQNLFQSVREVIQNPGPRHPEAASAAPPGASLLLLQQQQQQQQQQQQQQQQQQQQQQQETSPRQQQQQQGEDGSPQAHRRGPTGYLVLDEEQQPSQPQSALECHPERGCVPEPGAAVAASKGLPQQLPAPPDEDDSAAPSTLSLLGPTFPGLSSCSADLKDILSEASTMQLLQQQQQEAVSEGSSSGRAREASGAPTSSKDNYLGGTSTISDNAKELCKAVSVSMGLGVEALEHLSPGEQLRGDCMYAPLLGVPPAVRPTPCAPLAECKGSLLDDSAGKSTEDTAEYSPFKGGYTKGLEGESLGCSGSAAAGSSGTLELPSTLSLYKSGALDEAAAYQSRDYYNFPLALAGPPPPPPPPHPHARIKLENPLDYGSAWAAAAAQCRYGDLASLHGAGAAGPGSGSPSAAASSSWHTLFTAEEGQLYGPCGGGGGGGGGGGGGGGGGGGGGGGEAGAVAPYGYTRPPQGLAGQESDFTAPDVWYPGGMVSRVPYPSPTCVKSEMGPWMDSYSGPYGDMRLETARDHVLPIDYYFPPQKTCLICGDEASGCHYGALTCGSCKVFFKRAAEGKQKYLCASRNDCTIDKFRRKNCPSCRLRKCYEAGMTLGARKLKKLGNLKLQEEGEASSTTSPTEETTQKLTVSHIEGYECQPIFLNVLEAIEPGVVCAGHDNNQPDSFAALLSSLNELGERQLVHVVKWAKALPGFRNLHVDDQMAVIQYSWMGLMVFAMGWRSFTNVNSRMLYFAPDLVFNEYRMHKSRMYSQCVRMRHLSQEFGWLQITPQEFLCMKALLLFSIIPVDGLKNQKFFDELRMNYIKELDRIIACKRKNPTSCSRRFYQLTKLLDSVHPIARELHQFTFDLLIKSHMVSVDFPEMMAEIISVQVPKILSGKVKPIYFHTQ
Assay: AR antagonist cell assay (MDA-MB453-MMTV clone 54-19 luciferase reporter, 100 pM DHT)
Format: cell-based
Conditions: MDA-MB453-MMTV clone 54-19, inhibition of 100 pM DHT induction, 17 hr; mean of multiple tests; read-out: AR Cell IC50
Summary of the method: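 MDA-MB453 cells stably carrying an MMTV-ARE firefly luciferase reporter were plated overnight at 10,000/well in phenol-red-free, charcoal-stripped serum medium. Cells were stimulated with 100 pM DHT (final) for 17 hr at 37 °C, and AR antagonism was read as luciferase signal; values are means of multiple tests.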

With `CC(C)CC(Oc1ccc(C#N)c(C(F)(F)F)c1)C(=O)NCc1ccccc1` (centres unmarked) [Example 1, 2-(4-Cyano-3-trifluoromethyl-phenoxy)-4-methyl-pentanoic acid benzylamide] as the compound, how does the pIC50 read?
The pIC50 was 6.70.

With `CCCC(Oc1ccc(C#N)c(C(F)(F)F)c1)C(=O)NCc1ccccc1` (centres unmarked) [Example 4, 2-(4-Cyano-3-trifluoromethyl-phenoxy)-pentanoic acid benzylamide] as the compound, how does the pIC50 read?
The pIC50 was 7.24.
